These results are taken from ChEMBL document CHEMBL5291721, “A preclinical secondary pharmacology resource illuminates target-adverse drug reaction associations of marketed drugs” (Nat Commun, 2023).

Where only a bound is given, the exact number is not on record here.

The target in experiment [1] is T1, Alpha-2A adrenergic receptor (Homo sapiens, UniProt P08913).
T1 sequence (P08913 whole entry): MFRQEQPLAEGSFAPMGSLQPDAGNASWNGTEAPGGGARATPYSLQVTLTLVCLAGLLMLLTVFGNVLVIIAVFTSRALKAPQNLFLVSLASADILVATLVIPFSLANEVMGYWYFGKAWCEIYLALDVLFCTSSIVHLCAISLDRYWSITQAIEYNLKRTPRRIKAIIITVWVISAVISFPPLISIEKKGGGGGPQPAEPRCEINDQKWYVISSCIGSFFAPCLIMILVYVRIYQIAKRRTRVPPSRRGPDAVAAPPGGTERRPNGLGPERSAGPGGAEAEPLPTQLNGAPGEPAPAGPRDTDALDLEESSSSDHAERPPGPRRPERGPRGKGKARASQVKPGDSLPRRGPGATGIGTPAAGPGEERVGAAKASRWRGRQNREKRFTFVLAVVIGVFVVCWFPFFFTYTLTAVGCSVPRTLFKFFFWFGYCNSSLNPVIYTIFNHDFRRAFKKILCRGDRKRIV
The format is functional, cell-based.

Experiment [2] has as its target T2, Cholecystokinin receptor type A (Homo sapiens, UniProt P32238).
T2 sequence (P32238 whole entry): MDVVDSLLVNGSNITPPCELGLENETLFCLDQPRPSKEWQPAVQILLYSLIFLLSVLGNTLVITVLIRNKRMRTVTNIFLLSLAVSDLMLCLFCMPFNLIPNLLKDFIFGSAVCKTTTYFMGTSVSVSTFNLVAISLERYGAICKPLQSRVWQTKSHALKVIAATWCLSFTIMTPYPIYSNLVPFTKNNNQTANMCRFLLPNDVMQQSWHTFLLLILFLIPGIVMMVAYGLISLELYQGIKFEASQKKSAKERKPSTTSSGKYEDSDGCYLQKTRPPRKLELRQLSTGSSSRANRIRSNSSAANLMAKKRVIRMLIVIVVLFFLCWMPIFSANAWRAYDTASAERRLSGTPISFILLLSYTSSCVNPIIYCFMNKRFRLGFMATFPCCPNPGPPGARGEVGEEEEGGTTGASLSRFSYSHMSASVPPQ

Experiment [3] concerns the target T3, Gastrin/cholecystokinin type B receptor (Homo sapiens, UniProt P32239).
T3 sequence (P32239 whole entry): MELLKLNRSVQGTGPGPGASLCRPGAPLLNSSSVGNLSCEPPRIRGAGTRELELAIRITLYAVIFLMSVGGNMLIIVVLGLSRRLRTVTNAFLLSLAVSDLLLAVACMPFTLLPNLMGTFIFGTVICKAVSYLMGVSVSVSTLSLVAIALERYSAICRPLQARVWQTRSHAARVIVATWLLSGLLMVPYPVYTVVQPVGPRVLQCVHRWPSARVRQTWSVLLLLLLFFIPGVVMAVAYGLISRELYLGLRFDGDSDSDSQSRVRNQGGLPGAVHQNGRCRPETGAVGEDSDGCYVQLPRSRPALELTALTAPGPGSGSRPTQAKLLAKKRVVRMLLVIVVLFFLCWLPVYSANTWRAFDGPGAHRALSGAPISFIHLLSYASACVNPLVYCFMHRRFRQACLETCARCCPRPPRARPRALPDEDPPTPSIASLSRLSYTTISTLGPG

Experiment [4] has as its target Glutamate receptor ionotropic, NMDA 1 (Rattus norvegicus, UniProt P35439).
For experiment [5], the target named is T4, 5-hydroxytryptamine receptor 1A (Homo sapiens, UniProt P08908).
T4 sequence (P08908 whole entry): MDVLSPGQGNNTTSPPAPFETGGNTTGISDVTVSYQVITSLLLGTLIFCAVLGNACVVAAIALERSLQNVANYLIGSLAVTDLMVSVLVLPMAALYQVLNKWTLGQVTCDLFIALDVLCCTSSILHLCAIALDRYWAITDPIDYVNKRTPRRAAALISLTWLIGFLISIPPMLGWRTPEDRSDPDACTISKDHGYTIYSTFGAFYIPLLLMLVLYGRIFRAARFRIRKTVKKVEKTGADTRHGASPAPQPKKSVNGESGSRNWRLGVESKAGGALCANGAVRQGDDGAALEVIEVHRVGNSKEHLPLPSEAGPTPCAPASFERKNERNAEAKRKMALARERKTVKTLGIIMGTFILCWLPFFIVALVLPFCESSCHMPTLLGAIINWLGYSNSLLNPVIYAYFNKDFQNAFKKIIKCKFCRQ
The format is functional, cell-based.

Experiment [6] addresses Melanocortin receptor 3 (Homo sapiens, UniProt P41968).
In experiment [7] the target is Motilin receptor (Homo sapiens, UniProt O43193).
Sequence of Motilin receptor (O43193 whole entry): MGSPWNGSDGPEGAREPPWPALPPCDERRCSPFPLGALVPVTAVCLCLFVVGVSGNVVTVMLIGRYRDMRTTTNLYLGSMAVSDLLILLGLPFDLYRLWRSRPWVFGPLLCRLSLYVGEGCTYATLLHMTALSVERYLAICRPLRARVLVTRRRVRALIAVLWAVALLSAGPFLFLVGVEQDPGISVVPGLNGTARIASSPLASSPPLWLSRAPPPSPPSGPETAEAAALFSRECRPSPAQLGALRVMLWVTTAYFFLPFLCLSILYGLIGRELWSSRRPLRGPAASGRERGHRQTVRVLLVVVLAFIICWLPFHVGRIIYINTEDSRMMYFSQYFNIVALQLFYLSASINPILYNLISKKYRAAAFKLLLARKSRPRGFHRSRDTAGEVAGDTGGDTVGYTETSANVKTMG
In experiment [8] the target is T5, Neuropeptide Y receptor type 1 (Homo sapiens, UniProt P25929).
T5 sequence (P25929 whole entry): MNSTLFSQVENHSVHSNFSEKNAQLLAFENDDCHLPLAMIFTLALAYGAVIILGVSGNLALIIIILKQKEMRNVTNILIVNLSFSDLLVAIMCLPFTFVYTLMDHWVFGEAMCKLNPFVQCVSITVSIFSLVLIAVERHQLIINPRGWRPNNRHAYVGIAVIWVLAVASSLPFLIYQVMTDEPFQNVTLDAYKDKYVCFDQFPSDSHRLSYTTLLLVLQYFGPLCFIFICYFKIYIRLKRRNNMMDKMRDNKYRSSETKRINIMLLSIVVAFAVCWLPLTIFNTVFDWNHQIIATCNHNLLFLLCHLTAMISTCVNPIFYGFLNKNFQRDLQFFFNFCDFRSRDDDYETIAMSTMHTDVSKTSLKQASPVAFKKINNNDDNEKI

Experiment [9] has as its target 3',5'-cyclic-AMP phosphodiesterase 4D (Homo sapiens, UniProt Q08499). Type of experiment: functional.
Note: assay procedure not described here.

Sequence of 3',5'-cyclic-AMP phosphodiesterase 4D (Q08499 whole entry): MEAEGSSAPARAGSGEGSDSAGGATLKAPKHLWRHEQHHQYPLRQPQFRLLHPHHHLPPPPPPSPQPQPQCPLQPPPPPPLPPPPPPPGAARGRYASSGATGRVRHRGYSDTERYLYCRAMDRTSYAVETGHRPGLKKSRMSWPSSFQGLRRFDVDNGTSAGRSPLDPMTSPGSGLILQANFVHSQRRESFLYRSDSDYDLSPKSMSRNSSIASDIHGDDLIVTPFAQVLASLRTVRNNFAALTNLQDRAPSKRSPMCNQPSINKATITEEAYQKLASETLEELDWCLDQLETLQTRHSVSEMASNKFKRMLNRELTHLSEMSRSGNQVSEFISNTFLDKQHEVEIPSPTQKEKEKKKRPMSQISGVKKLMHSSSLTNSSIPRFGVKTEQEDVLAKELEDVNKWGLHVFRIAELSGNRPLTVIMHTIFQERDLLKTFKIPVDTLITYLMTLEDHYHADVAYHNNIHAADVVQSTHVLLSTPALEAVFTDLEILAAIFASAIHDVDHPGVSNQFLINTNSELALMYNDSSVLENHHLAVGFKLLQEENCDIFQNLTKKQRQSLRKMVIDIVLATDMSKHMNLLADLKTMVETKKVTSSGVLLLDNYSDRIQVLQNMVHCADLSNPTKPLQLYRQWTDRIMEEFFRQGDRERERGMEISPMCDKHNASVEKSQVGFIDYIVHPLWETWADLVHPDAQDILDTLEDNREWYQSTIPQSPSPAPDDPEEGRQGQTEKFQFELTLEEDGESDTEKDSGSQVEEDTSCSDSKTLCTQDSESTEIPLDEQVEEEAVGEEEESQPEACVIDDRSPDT
Sequence of Melanocortin receptor 3 (P41968 whole entry): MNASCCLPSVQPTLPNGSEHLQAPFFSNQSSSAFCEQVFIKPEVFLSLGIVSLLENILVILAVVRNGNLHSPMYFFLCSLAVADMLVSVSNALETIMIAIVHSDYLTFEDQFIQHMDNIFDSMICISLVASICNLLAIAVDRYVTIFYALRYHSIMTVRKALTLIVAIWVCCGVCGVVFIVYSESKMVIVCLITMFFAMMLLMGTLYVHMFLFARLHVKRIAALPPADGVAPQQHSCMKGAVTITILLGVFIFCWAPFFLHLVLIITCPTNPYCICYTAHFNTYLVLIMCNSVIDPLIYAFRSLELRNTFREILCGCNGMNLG

Consider `COc1ccc(/C=C/C(=O)Nc2ccccc2C(=O)O)cc1OC`, for which the AC50 in experiment [1], in experiment [2], in experiment [3], in experiment [4], in experiment [5] and in experiment [6] was > 30 µM in each case. Also, the results for the AC50 in experiment [7], in experiment [8] and in experiment [9] were > 30 µM, > 30 µM and 21 µM, respectively.

Take `NCCCC(O)(P(=O)(O)O)P(=O)(O)O` [ALENDRONIC ACID]: the AC50 in experiment [1] was > 10 µM; in [2], > 30 µM; in experiment [3], > 30 µM; in experiment [4] it was > 10 µM; in [5], > 10 µM; in experiment [6], > 30 µM. The AC50 in [7] is > 10 µM; in experiment [8], > 30 µM; in [9] it was > 30 µM.

Turning to `Nc1ccc(C(=O)O)c(O)c1` [AMINOSALICYLIC ACID], the AC50 in experiment [1], in [2], in [3], in experiment [4], in [6] and in [7] was > 30 µM each time. The AC50 in experiment [8] and in experiment [9] was > 30 µM each time.

As for `COc1cc(OC)c(C(=O)CCCN2CCCC2)c(OC)c1` [BUFLOMEDIL], the AC50 is > 30 µM in experiment [1]; > 30 µM in [2]; > 30 µM in [3]; > 30 µM in [4]; 29 µM in experiment [5]; > 30 µM in experiment [6]. Further, the AC50 in [7], in experiment [8] and in experiment [9] was > 30 µM each time.

Take `CS(=O)(=O)OCCCCOS(C)(=O)=O` [BUSULFAN]: the AC50 in experiment [1], in [2], in experiment [3], in [4], in [5] and in [6] was > 30 µM each time. In addition, the AC50 in experiment [7], in experiment [8] and in experiment [9] was > 30 µM throughout.

`CCCCCCNC(=O)n1cc(F)c(=O)[nH]c1=O` [CARMOFUR]: the half-maximal activity concentration (AC50) in experiment [1], in [2], in experiment [3], in [4], in experiment [5] and in experiment [6] was > 30 µM throughout. Also, the AC50 in [7], in experiment [8] and in experiment [9] was > 30 µM throughout.

For `C=CC1=C(C(=O)O)N2C(=O)[C@@H](NC(=O)/C(=N\OCC(=O)O)c3csc(N)n3)[C@H]2SC1` [CEFIXIME], the half-maximal activity concentration (AC50) in experiment [1], in experiment [2], in [3], in experiment [6], in experiment [7] and in experiment [8] was > 30 µM each time. Further, in experiment [9], the AC50 was > 30 µM.

`CC(C)(C)NCC(O)c1cc(Cl)c(N)c(Cl)c1` (stereo not given) [CLENBUTEROL]: the AC50 in [1], in experiment [2], in experiment [3], in [4], in [5] and in experiment [6] was > 30 µM in each case. Also, the AC50 in experiment [7], in [8] and in experiment [9] was > 30 µM throughout.

As for `COc1cccc2c1C(=O)c1c(O)c3c(c(O)c1C2=O)C[C@@](O)(C(C)=O)C[C@@H]3O[C@H]1C[C@H](N)[C@H](O)[C@H](C)O1` [DAUNORUBICIN], the AC50 in experiment [2] was 24 µM; in experiment [3], > 30 µM; in experiment [4], > 30 µM; in experiment [6], 29 µM; in experiment [7] it was > 30 µM; in experiment [8], > 10 µM. Also, half-maximal activity in [9] (AC50) was put at 22 µM.

As for `C[C@@H]1C[C@H]2[C@@H]3C[C@H](F)C4=CC(=O)C=C[C@]4(C)[C@@]3(F)[C@@H](O)C[C@]2(C)[C@H]1C(=O)CO` [DIFLUCORTOLONE], the AC50 in experiment [6] and in experiment [9] was > 30 µM throughout.

`CC(=O)OCC(CCn1cnc2cnc(N)nc21)COC(C)=O` [FAMCICLOVIR]: the AC50 was > 10 µM in experiment [1]; > 30 µM in experiment [2]; > 30 µM in experiment [3]; > 10 µM in experiment [4]; > 10 µM in experiment [5]; > 30 µM in experiment [6]. Besides, the AC50 is > 10 µM in experiment [7], > 30 µM in [8] and > 30 µM in experiment [9].

As to `Nc1ccn([C@@H]2O[C@H](CO)[C@@H](O)C2(F)F)c(=O)n1` [GEMCITABINE], the AC50 was > 10 µM in experiment [1]; > 30 µM in [2]; > 30 µM in experiment [3]; > 10 µM in experiment [4]; > 10 µM in experiment [5]; > 30 µM in experiment [6]. Also, the AC50 was > 10 µM in [7], > 30 µM in experiment [8] and 16 µM in [9].

Consider `C[n+]1ccccc1/C=N/O` [PRALIDOXIME], for which the AC50 is > 30 µM in experiment [1], > 30 µM in [4], > 30 µM in experiment [5] and 24 µM in experiment [9].

For the compound `COc1cc2nccc(Oc3ccc(NC(=O)Nc4cc(C)on4)c(Cl)c3)c2cc1OC` [TIVOZANIB], the AC50 is > 3 µM in [6] and 27 µM in experiment [9].

As to `Cc1cccc(N(C)C(=S)Oc2ccc3ccccc3c2)c1` [TOLNAFTATE], the AC50 in experiment [1], in experiment [2], in experiment [4], in experiment [5], in experiment [6] and in experiment [7] was > 10 µM each time. Moreover, the AC50 is > 10 µM in experiment [8] and > 30 µM in experiment [9].

`CN1[C@@H]2CC[C@H]1C[C@@H](OC(=O)c1c[nH]c3ccccc13)C2` [TROPISETRON]: the AC50 was > 30 µM in experiment [1]; > 10 µM in [2]; > 30 µM in [3]; > 30 µM in experiment [6]; > 30 µM in [7]; > 30 µM in [8]. In addition, in experiment [9], the AC50 is > 30 µM.

As to `COc1ccc(C(CN(C)C)C2(O)CCCCC2)cc1` (stereo not given) [VENLAFAXINE], the AC50 was > 10 µM in experiment [1]; > 30 µM in experiment [2]; > 30 µM in [3]; > 10 µM in [4]; > 30 µM in [6]; > 10 µM in experiment [7]. Moreover, the AC50 in experiment [8] was > 30 µM; in experiment [9], > 10 µM.

One may read the AC50 as the concentration at which the activity in the assay is half-maximal. Lower therefore signals activity at low concentration.
